Data on one molecule can be found in article PMC7714403 (JCI Insight, 2020).

The test system of experiment [1] is MV4-11, MOLM13, and MOLM13-RES cells. The experiment is described as follows: Cell cycle analysis. The class given is cell-based, human. As to conditions: 20 nM, 12 hours. On the procedure:
(§1) Luc+ or MOLM13-Res -Luc+ cells, 0.5 million OCI-AML3 -Luc+ cells, and 10,000 Ba/F3-FLT3-ITD/F691L-GFP+ cells. Weekly tumor engraftment of cell line xenograft models were assessed after injection of D-luciferin (150mg/kg i.p.; Gold Biotechnology, Inc, St. Louis, MO) on Xenogen IVIS-200 imaging system (Perkin Elmer, Waltham, MA) or GFP monitoring by peripheral blood via BD LSR II flow cytometer (BD Biosciences, San Jose, CA). Signal intensity was analyzed using Living Image Software (PerkinElmer) or FlowJo v10.0.08 software (FlowJo, LLC, Ashland, OR). Mice were randomized to treatment groups based on signal intensity and leukemia burden. Drug treatments were started on days 3, 7, or 13 after cell injection in OCI-AML3, MOLM13, and MOLM13-Res xenografts, respectively. In murine AML transplantation model, 1 million FLT3-ITD+/-/IDH2-R140Q+/- splenocytes (in house colony) were intravenously injected in male NSG mice. On day 7, mice were started on drug treatments. […]
(§2) At indicated time points, cells were collected and washed with PBS. CD11b expression was measured using anti-CD11b -APC antibody (BioLegend, San Diego, CA). […] CD11b expression and apoptosis were measured by BD LSR II flow cytometer. […]
(§3) with DAPI in 0.1% Triton-X (ThermoFisher Scientific) PBS for 30 minutes at room temperature and protected from light. The DNA content was determined using a BD LSR II flow cytometer. […]

The next experiment has as its system OCI-AML3 cells. The experiment is described as follows: Cell cycle analysis. The class given is cell-based, human. The note with it: 20 nM, 12–24 hours. On the procedure:
as §1, §2, §3

The subject of experiment [2] is Ba/F3 cells expressing FLT3 D835H/Y. The experiment is described as follows: MTT viability assay. It is filed as cell-based. The note with it: Mus musculus, BaF3, read-out: IC50 values, range. The protocol: (§4) Drug treatments were carried out for 72 hours. Details are provided in the Supplemental Methods.
Experiment [3] relates to MV4-11, MOLM13, and MOLM13-RES cells. The experiment is described as follows: MTT viability assay. As to conditions: Homo sapiens; range over MV4-11, MOLM13, MOLM13-RES. It is filed as cell-based. The protocol:
as §4

A further experiment addresses MAP4K3 (Homo sapiens, UniProt Q8IVH8). The experiment is described as follows: KiNativ, OCI cells live cell. It is filed as cell-based. The note with it: labeling site Lys2, peptide DIKGANILLTDNGHVK
The target of a further experiment is MLK3 (Homo sapiens, UniProt Q16584). The experiment is described as follows: KiNativ, OCI cells live cell. As to conditions: labeling site Lys2, peptide DLKSNNILLLQPIESDDMEHK
It is filed as cell-based.

A further experiment has as its target T1, IKKb (Homo sapiens, UniProt O14920).
T1 sequence (O14920 1-756): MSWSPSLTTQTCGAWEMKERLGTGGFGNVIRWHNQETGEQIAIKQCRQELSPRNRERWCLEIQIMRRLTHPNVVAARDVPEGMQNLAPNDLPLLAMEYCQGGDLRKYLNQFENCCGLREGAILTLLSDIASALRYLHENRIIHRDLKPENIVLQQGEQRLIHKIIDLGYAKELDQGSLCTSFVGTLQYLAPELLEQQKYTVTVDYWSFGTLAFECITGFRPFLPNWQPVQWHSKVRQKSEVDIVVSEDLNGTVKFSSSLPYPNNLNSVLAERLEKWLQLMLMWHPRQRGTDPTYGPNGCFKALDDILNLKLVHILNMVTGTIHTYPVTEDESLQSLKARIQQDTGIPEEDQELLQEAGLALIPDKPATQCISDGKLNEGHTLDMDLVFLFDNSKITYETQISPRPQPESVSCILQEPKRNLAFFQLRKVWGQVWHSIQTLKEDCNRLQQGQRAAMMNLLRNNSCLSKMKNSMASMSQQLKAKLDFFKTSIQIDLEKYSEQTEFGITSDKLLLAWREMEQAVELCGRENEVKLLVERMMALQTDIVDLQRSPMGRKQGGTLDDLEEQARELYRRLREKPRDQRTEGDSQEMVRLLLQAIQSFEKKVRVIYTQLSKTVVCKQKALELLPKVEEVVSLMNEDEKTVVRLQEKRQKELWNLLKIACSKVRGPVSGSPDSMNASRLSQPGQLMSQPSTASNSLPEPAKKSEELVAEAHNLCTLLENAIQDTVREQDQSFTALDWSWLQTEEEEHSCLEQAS
The experiment is described as follows: KiNativ, OCI cells live cell. It is filed as cell-based. As to conditions: 2 h.

Chain of MAP4K3 (Q8IVH8 whole entry): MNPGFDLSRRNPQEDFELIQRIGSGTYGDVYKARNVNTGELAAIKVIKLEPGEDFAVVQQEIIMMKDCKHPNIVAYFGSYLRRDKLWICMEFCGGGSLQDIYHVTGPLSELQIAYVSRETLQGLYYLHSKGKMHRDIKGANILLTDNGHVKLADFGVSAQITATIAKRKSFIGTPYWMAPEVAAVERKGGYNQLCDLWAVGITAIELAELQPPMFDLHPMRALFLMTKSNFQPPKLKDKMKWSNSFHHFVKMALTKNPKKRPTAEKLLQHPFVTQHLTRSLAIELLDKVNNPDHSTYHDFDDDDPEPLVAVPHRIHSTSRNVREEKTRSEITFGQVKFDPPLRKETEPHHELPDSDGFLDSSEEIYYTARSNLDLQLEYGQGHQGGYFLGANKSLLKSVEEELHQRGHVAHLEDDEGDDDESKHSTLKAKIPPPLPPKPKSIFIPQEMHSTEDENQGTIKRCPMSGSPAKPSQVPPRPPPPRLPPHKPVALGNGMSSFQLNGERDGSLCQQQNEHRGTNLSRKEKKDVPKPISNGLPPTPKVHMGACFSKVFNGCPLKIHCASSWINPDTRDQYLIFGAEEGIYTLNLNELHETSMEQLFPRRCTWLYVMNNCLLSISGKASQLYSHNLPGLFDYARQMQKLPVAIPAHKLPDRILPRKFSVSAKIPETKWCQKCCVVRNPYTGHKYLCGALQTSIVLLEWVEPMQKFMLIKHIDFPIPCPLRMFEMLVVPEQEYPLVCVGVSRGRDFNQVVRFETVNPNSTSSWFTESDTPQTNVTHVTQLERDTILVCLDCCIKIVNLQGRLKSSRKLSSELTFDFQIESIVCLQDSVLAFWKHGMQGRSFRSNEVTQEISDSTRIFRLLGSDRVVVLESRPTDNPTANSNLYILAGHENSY
Chain of MLK3 (Q16584 whole entry): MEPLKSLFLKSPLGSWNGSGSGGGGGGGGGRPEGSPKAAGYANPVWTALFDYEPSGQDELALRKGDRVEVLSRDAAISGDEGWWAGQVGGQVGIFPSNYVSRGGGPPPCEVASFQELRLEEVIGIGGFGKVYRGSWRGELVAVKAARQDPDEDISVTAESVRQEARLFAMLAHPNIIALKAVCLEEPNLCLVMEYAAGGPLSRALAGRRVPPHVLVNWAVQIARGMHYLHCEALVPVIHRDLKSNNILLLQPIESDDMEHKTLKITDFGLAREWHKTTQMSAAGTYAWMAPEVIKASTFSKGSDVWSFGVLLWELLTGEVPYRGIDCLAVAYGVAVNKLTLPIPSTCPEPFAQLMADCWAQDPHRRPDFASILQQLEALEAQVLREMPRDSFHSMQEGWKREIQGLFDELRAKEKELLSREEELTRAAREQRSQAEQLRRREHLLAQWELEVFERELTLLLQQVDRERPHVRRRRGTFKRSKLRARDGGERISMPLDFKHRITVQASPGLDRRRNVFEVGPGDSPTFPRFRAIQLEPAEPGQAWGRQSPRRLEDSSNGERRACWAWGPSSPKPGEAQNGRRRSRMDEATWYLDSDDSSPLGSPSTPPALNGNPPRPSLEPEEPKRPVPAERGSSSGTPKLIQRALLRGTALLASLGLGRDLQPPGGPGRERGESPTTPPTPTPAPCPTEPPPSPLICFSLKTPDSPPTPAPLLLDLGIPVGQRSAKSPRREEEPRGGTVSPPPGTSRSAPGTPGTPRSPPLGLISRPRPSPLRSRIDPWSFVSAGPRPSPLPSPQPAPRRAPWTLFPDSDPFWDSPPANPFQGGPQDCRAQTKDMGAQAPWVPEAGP

In the case of `CN1CCN(Cc2ccc(Nc3ncc(Cl)c(Nc4ccccc4S(=O)(=O)N(C)C)n3)cc2)CC1` [TP-0903], the Cell cycle entry (in experiment [1]; in the experiment with OCI-AML3 cells) was “G2-M cell cycle arrest” in each case. Also, the values for the half-maximal inhibitory concentration (IC50) in experiment [2] and in experiment [3] were 16 to 22 nM and 16 to 21 nM, respectively. The Inhibition on MAP4K3 is listed as 64.9%; at MLK3, 31.9%. Besides, the inhibition at 0.1 µM against IKKb (labeling site Lys1, peptide WHNQETGEQIAIKQCR) is -16%; against IKKb (labeling site Lys2, peptide DLKPENIVLQQGEQR), 14.6%.
